Values quoted from earlier work as cited in patent publication US9221747B2, “Method of making fatty acid N-acylalkanolamines” (Iowa State University Research Foundation, Inc., priority 2012, dated 2015).

Conditions: at −20° C.

| solubility in methanol [g/100 g methanol] | Compound |
| --- | --- |
| 4.02 | CCCCCCCC/C=C\CCCCCCCC(=O)O [oleic acid] |
| 233 | CCCCC/C=C\C/C=C\CCCCCCCC(=O)O [linoleic acid] |
